According to patent publication US20230083973A1, “SUBSTITUTED CYCLOPROPYL-2,2'-BIP[…], ANALOGUES THEREOF, AND METHODS USING SAME” (priority 2019, published 2023):
pEC50: −log10 of the molar value.

Test system: HBsAg
Assay: HBsAg assay: inhibition of HBsAg in HepG2.2.15 cells (chemiluminescence immunoassay of supernatant)
Type: cell-based, hepatitis B virus
Settings: Hepatitis B virus, HepG2.2.15, 144 h, read-out: sAg EC50, HepG2.2.15 cells; HBsAg in supernatant at day 6 after exposure to compound; 0.5% DMSO
Protocol: Inhibition of HBsAg was determined in HepG2.2.15 cells. Cells were maintained in culture medium containing 10% fetal calf serum, […], Glutamine, penicillin/streptomycin. Cells were seeded in 96-well collagen-coated plate at a density of 30,000 cells/well. Serially diluted compounds were added to cells next day at the final DMSO concentration of 0.5%. Cells were incubated with compounds for 2-3 days, after which medium was removed. Fresh medium containing compounds was added to cells for additional 3-4 days. At day 6 after exposure of compounds, supernatant was collected, the HBsAg immunoassay (microplate-based chemiluminescence immunoassay kits, CLIA, Autobio Diagnosics Co., Zhengzhou, China, Catalog # CL0310-2) was used to determine the level of HBsAg according to manufactory instruction. Dose-response curves were generated and the EC50 value (effective concentrations that achieved 50% inhibitory effect) were determined using XLfit software. In addition, cells were seeded at a density of 5,000 cells/well for determination of cell viability in the presence and absence of compounds by using CellTiter-Glo reagent (Promega).
Table 1 illustrates EC50 values obtained by the HBsAg assay for selected compounds.

SMILES | pEC50
COc1ccc([C@@H]2C[C@H]2c2cnc(-c3ncccn3)nc2)c(F)c1 (relative stereo) [Example 1, trans-5-(2-(2-Fluoro-4-methoxyphenyl)cyclopropyl)-2,2′-bipyrimidine] | 6.70
Fc1ccc([C@@H]2C[C@H]2c2ccnc(-c3ncccn3)n2)cc1F (relative stereo) [Example 4, trans-4-(2-(3,4-Difluorophenyl)cyclopropyl)-2,2′-bipyrimidine] | 5.15
COc1cc(F)ccc1[C@@H]1C[C@H]1c1cnc(-c2ncccn2)nc1 (relative stereo) [Example 7, trans-5-(2-(4-Fluoro-2-methoxyphenyl)cyclopropyl)-2,2′-bipyrimidine] | 6.43
COc1cc([C@@H]2C[C@H]2c2cnc(-c3ncccn3)nc2C)ccc1F (relative stereo) [Example 16, trans-5-(2-(4-Fluoro-3-methoxyphenyl)cyclopropyl)-4-methyl-2,2′-bipyrimidine] | 6.12
COc1ccc([C@H]2C[C@H]2c2cnc(-c3ncccn3)nc2)c(F)c1 (relative stereo) [Example 73, cis-5-(2-(2-Fluoro-4-methoxyphenyl)cyclopropyl)-2,2′-bipyrimidine] | 5.05
COc1cc([C@@H]2C[C@H]2c2cnc(-c3ncccn3)nc2)ccc1OC(F)(F)F (relative stereo) [Example 152, trans-5-(2-(3-Methoxy-4-(trifluoromethoxy)phenyl)cyclopropyl)-2,2′-bipyrimidine] | 6.15
COc1cc([C@@H]2C[C@H]2c2cnc(-c3ncccn3)nc2)ccc1C(F)(F)F (relative stereo) [Example 153, trans-5-(2-(3-Methoxy-4-(trifluoromethyl)phenyl)cyclopropyl)-2,2′-bipyrimidine] | 6.72
Fc1cc([C@@H]2C[C@H]2c2cnc(-c3ncccn3)nc2)cc(F)c1F (relative stereo) [Example 160, trans-5-(2-(3,4,5-Trifluorophenyl)cyclopropyl)-2,2′-bipyrimidine] | 6.57
COc1cc([C@@H]2C[C@H]2c2cnc(-c3ncccn3)nc2)cc(C(F)(F)F)c1 (relative stereo) [Example 163, trans-5-(2-(3-Methoxy-5-(trifluoromethyl)phenyl)cyclopropyl)-2,2′-bipyrimidine] | 6.85
COc1cc(OC(F)(F)F)cc([C@@H]2C[C@H]2c2cnc(-c3ncccn3)nc2)c1 (relative stereo) [Example 164, trans-5-(2-(3-Methoxy-5-(trifluoromethoxy)phenyl)cyclopropyl)-2,2′-bipyrimidine] | 6.32
COc1cc([C@@H]2C[C@H]2c2cnc(-c3ncccn3)nc2)cc(C(F)(F)F)c1F (relative stereo) [Example 165, trans-5-(2-(4-Fluoro-3-methoxy-5-(trifluoromethyl)phenyl)cyclopropyl)-2,2′-bipyrimidine] | 6.60
c1cnc(-c2ncc([C@@H]3C[C@H]3c3cccc4ccccc34)cn2)nc1 (relative stereo) [Example 166, trans-5-(2-(Naphthalen-1-yl)cyclopropyl)-2,2′-bipyrimidine] | 7.19
c1cnc(-c2ncc([C@@H]3C[C@H]3c3ccc4ccccc4c3)cn2)nc1 (relative stereo) [Example 167, trans-5-(2-(Naphthalen-2-yl)cyclopropyl)-2,2′-bipyrimidine] | 6.74
Fc1ccc([C@@H]2C[C@H]2c2cnc(-c3ncccn3)nc2)c2ccccc12 (relative stereo) [Example 168, trans-5-(2-(4-Fluoronaphthalen-1-yl)cyclopropyl)-2,2′-bipyrimidine] | 7.44
Fc1cc([C@@H]2C[C@H]2c2cnc(-c3ncccn3)nc2)cc2ccccc12 (relative stereo) [Example 169, trans-5-(2-(4-Fluoronaphthalen-2-yl)cyclopropyl)-2,2′-bipyrimidine] | 7.44
c1cnc(-c2ncc([C@@H]3C[C@H]3c3cnc4ccccn34)cn2)nc1 (relative stereo) [Example 170, trans-3-(2-([2,2′-Bipyrimidin]-5-yl)cyclopropyl)imidazo[1,2-a]pyridine] | 6.00
c1cnc(-c2ncc([C@@H]3C[C@H]3c3cccc4ncccc34)cn2)nc1 (relative stereo) [Example 171, trans-5-(2-([2,2′-Bipyrimidin]-5-yl)cyclopropyl)quinoline] | 6.42
Fc1ccc([C@@H]2C[C@H]2c2cnc(-c3ncccn3)nc2)c2cccnc12 (relative stereo) [Example 172, trans-5-(2-([2,2′-Bipyrimidin]-5-yl)cyclopropyl)-8-fluoroquinoline] | 6.60
COc1ccc([C@@H]2C[C@H]2c2cnc(-c3ncccn3)nc2)c2cccnc12 (relative stereo) [Example 173, trans-5-(2-([2,2′-Bipyrimidin]-5-yl)cyclopropyl)-8-methoxyquinoline] | 6.27
COc1cc([C@@H]2C[C@H]2c2cnc(-c3ccccn3)nc2)cc(F)c1F (relative stereo) [Example 174, trans-5-(2-(3,4-Difluoro-5-methoxyphenyl)cyclopropyl)-2-(pyridin-2-yl)pyrimidine] | 7.17
COc1cc([C@@H]2C[C@H]2c2cnc(-c3ccccn3)nc2)cc(OC)c1F (relative stereo) [Example 175, trans-5-(2-(4-Fluoro-3,5-dimethoxyphenyl)cyclopropyl)-2-(pyridin-2-yl)pyrimidine] | 6.46
COc1cc([C@@H]2C[C@H]2c2cnc(-c3ccccn3)nc2)cc(OC)c1OC (relative stereo) [Example 176, trans-2-(Pyridin-2-yl)-5-(2-(3,4,5-trimethoxyphenyl)cyclopropyl)pyrimidine] | 5.70
COc1cc([C@@H]2C[C@H]2c2cnc(-c3ccncn3)nc2)cc(F)c1F (relative stereo) [Example 177, trans-5-(2-(3,4-Difluoro-5-methoxyphenyl)cyclopropyl)-2,4′-bipyrimidine] | 6.44
COc1cc([C@@H]2C[C@H]2c2cnc(-c3cnccn3)nc2)cc(F)c1F (relative stereo) [Example 178, trans-5-(2-(3,4-Difluoro-5-methoxyphenyl)cyclopropyl)-2-(pyrazin-2-yl)pyrimidine] | 6.34
COc1cc([C@@H]2C[C@H]2c2cnc(-c3ncccc3F)nc2)cc(F)c1F (relative stereo) [Example 179, trans-5-(2-(3,4-Difluoro-5-methoxyphenyl)cyclopropyl)-2-(3-fluoropyridin-2-yl)pyrimidine] | 6.43
COc1cccnc1-c1ncc([C@@H]2C[C@H]2c2cc(F)c(F)c(OC)c2)cn1 (relative stereo) [Example 180, trans-5-(2-(3,4-Difluoro-5-methoxyphenyl)cyclopropyl)-2-(3-methoxypyridin-2-yl)pyrimidine] | 6.00
Fc1cc([C@@H]2C[C@H]2c2cnc(-c3ncccn3)nc2)cc(N2CC3(COC3)C2)c1F (relative stereo) [Example 209, trans-6-(5-(2-([2,2′-Bipyrimidin]-5-yl)cyclopropyl)-2,3-difluorophenyl)-2-oxa-6-azaspiro[3.3]heptane] | 6.92
CC(C)OC1CN(c2cc([C@@H]3C[C@H]3c3cnc(-c4ncccn4)nc3)cc(F)c2F)C1 (relative stereo) [Example 210, trans-5-(2-(3,4-Difluoro-5-(3-isopropoxyazetidin-1-yl)phenyl)cyclopropyl)-2,2′-bipyrimidine] | 7.26
